# How the values were obtained:
# Staphococcus species = experiment: Ceramic tile disinfection with powdered hypochlorite; details: tile treated with 2% NaOCl (positive control)
# contaminated slides = experiment: Continuous disinfection of contaminated slides by vapor emitter; type: cell-based; details: 6000 ppm sodium hypochlorite at pH 9; contaminated slides exposed and evaluated every couple of days
# Source text: Another approach is increasing the pH of the bleach solution to reduce chlorine. See in the Examples Section below. An isobaric line for constant hypochlorous acid vapor pressure can be calculated from literature values of various equilibrium constants for various concentrations of sodium hypochlorite and pH. Thus, one can maintain the performance of a desired concentration of hypochlorous acid but eliminate chlorine by increasing pH and hypochlorite concentration according to the isobaric line. […] The higher bleach concentrations also allow for smaller volumes of solution since the volume of solution required to provide a certain number of moles of hypochlorous acid decreases as the concentration increases. […] This allows much longer product lifetimes for an emitter. […] In one embodiment, the sodium hypochlorite at about pH 9 is gelled using clay.
# Escherica coli = experiment: Ceramic tile disinfection with powdered hypochlorite; details: tile treated with 2% NaOCl (positive control)
# Klebsiella species = experiment: as above; details: tile sprayed with 2% solution; contact time four minutes (positive control)
# Dust mite allergen = details: ELISA test after treatment for 1 hour; low concentration; cited from earlier work
# [1] = Stability of thickened dilute hypochlorite at 120° F.; details: compared with thickeners of Table XXIV
compound,measurement,setting,value
"[Na+].[O-]Cl [NaOCl, sodium hypochlorite]",bacterial growth on agar plate,Staphococcus species,no growth
same,duration of continuous disinfection,contaminated slides,continuous disinfection for more than a month
same,bacterial growth on agar plate,Escherica coli,no growth
same,bacterial growth on agar plate,Klebsiella species,no bacterial growth
OCl [hypochlorite ions],reduction of dust mite allergen binding,Dust mite allergen,up to 82%
CCCCCCCCCCCCOS(=O)(=O)[O-].[Na+] [sodium lauryl sulfate],"stability of dilute hypochlorite with surfactant, by comparison",[1],less stable than Vangel ES®

# — US20090148342A1, “Hypochlorite Technology” (priority 2007, published 2009)
